What is called IC50 is the midpoint of a concentration-inhibition curve. Low readings indicate higher potency, high ones lower potency.

The record followed here is patent US11702422B2, “Imidazopyridazines as modulators of IL-17” (Janssen Pharmaceutica NV, priority 2020, dated 2023).

The structures appear in SMILES notation.

The target of experiment [1] is IL-17A(FLAG-Tagged): IL-17RA(His-Tagged) (Homo sapiens, UniProt Q16552, K93Q). Briefly: IL-17A(FLAG-Tagged): IL-17RA(His-Tagged) Binding Disruption Eu-HTRF Assay. To be noted: IL-17A/IL-17RA binding disruption, simple average if tested more than once. In outline:
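IC50 comes from a one-site competition fit of the HTRF 665/620 nm ratio. Compound dilutions (2-fold, 22 points) were held 1 h rt with FLAG-tagged IL-17A dimer, then His-tagged IL-17RA plus Eu-cryptate anti-FLAG and D2 anti-His antibodies were added for 2 h rt.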

Experiment [2] deals with IL-17A-induced G-CSF production in human normal keratinocyte (NHK). Kind of experiment: NHK Assay: IL-17A-induced G-CSF production in human normal keratinocytes. In kind it is cell-based. The following applies: adult normal human keratinocytes, IL-17A 5 ng/mL, 24 h, simple average if tested more than once. The method, boiled down:
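Titrated compound plus recombinant human IL-17A (pre-incubated 1 h, rt) were applied to adult human keratinocytes at 5 ng/mL cytokine, 0.2% DMSO. Cultures ran 24 h at 37° C, and supernatant G-CSF was measured by HTRF to derive IC50.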

UniProt Q16552, sequence (Q16552 with tags, fused parts or gaps K93Q): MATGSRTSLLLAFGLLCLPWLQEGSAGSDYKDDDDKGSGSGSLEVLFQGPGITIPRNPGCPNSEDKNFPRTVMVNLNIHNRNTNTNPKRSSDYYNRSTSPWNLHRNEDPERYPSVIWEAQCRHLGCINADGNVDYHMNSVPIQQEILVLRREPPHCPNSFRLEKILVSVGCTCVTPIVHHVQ

For `CC(C)n1nccc1C(=O)N[C@H](c1cn2ncc(C(CC#N)NC(=O)CC3CC(F)(F)C3)cc2n1)C1CCC(F)(F)CC1` (single isomer, unassigned) [Example 447, N—((S)-(7-((R*)-2-Cyano-1-(2-(3,3-difluorocyclobutyl)acetamido)ethyl)imidazo[1,2-b]pyridazin-2-yl)(4,4-difluorocyclohexyl)methyl)-1-isopropyl-1H-pyrazole-5-carboxamide], the results for the IC50 in experiment [1] and in experiment [2] were 300 nM and 1100 nM, respectively.
`CCOc1conc1C(=O)N[C@H](c1cn2ncc([C@H](NC(=O)CCC(F)(F)F)C3CC3)cc2n1)C1CCC(F)(F)CC1` [Example 373, N—((S)-(7-((R)-Cyclopropyl(4,4,4-trifluorobutanamido)methyl)imidazo[1,2-b]pyridazin-2-yl)(4,4-difluorocyclohexyl)methyl)-4-ethoxyisoxazole-3-carboxamide]: the IC50 in experiment [1] turned out to be 62 nM; in experiment [2] (Homo sapiens, Keratinocyte) it was 240 nM.
As to `CC(C)n1nccc1C(=O)N[C@H](c1cn2ncc(C(NC(=O)CCC(F)(F)F)C3CCC3)cc2n1)C1CCC(F)(F)CC1` (single isomer, unassigned) [Example 490, N—((S)-(7-((R*)-Cyclobutyl(4,4,4-trifluorobutanamido)methyl)imidazo[1,2-b]pyridazin-2-yl)(4,4-difluorocyclohexyl)methyl)-1-isopropyl-1H-pyrazole-5-carboxamide], the IC50 amounted to 150 nM in experiment [1] and 67 nM in experiment [2] (Homo sapiens, Keratinocyte).
Taken in the same sequence, the figures for `Cc1ccnc(C(=O)N[C@H](c2cn3ncc([C@H](NC(=O)CCC(F)(F)F)C4CC4)cc3n2)C2CCC(F)(F)CC2)n1` [Example 212, N—((S)-(7-((R)-Cyclopropyl(4,4,4-trifluorobutanamido)methyl)imidazo[1,2-b]pyridazin-2-yl)(4,4-difluorocyclohexyl)methyl)-4-methylpyrimidine-2-carboxamide] were 13000 nM and more than 20000 nM.
Regarding `O=C(CCC(F)(F)F)NC(c1cnn2cc([C@@H](NC(=O)c3cnn(CCC(F)(F)F)n3)C3CCC(F)(F)CC3)nc2c1)C1CC1` (single isomer, unassigned) [Example 19, N—((S)-(7-((S*)-Cyclopropyl(4,4,4-trifluorobutanamido)methyl)imidazo[1,2-b]pyridazin-2-yl)(4,4-difluorocyclohexyl)methyl)-2-(3,3,3-trifluoropropyl)-2H-1,2,3-triazole-4-carboxamide], the IC50 in experiment [1] is 3900 nM; in experiment [2] it was 3800 nM.
In the case of `CC(C)Oc1cccc(C(=O)N[C@H](c2cn3ncc([C@H](NC(=O)CCC(F)(F)F)C4CC4)cc3n2)C2CCC(F)(F)CC2)n1` [Example 227, N—((S)-(7-((R)-Cyclopropyl(4,4,4-trifluorobutanamido)methyl)imidazo[1,2-b]pyridazin-2-yl)(4,4-difluorocyclohexyl)methyl)-6-isopropoxypicolinamide], the IC50 in experiment [1] amounted to 900 nM; in experiment [2] (Homo sapiens, Keratinocyte) it was 20000 nM.
As for `CC(C)n1nccc1C(=O)N[C@H](c1cn2ncc(C(NC(=O)CC3(C(F)(F)F)CC3)C3(C#N)CC3)cc2n1)C1CCC(F)(F)CC1` (single isomer, unassigned) [Example 428, N—((S)-(7-((S*)-(1-Cyanocyclopropyl)(2-(1-(trifluoromethyl)cyclopropyl)acetamido)methyl)imidazo[1,2-b]pyridazin-2-yl)(4,4-difluorocyclohexyl)methyl)-1-isopropyl-1H-pyrazole-5-carboxamide], the values for the IC50 in experiment [1] and in experiment [2] were 370 nM and 120 nM, respectively.
Turning to `O=C(CCC(F)(F)F)N[C@@H](c1cnn2cc([C@@H](NC(=O)c3cccc(OCC4CC4)c3)C3CCC(F)(F)CC3)nc2c1)C1CC1` [Example 180, N—((S)-(7-((R)-Cyclopropyl(4,4,4-trifluorobutanamido)methyl)imidazo[1,2-b]pyridazin-2-yl)(4,4-difluorocyclohexyl)methyl)-3-(cyclopropylmethoxy)benzamide], the concentration for half-maximal inhibition (IC50) in experiment [1] came to 130 nM; in experiment [2] (Homo sapiens, Keratinocyte), 450 nM.
For the compound `O=C(CCC(F)(F)F)N[C@@H](c1cnn2cc([C@@H](NC(=O)c3cccc(F)c3)C3CCC(F)(F)CC3)nc2c1)C1CC1` [Example 173, N—((S)-(7-((R)-Cyclopropyl(4,4,4-trifluorobutanamido)methyl)imidazo[1,2-b]pyridazin-2-yl)(4,4-difluorocyclohexyl)methyl)-3-fluorobenzamide], the concentration for half-maximal inhibition (IC50) in experiment [1] worked out at 60 nM; in experiment [2] (Homo sapiens, Keratinocyte), 340 nM.
For `CC(C)n1nccc1C(=O)N[C@H](c1cn2ncc([C@H](NC(=O)C[C@](C)(O)C(F)(F)F)C3CC3)cc2n1)C1CCC(F)(F)CC1` (relative stereo) [Example 133, N—((S)-(7-((R*)-Cyclopropyl((S*)-4,4,4-trifluoro-3-hydroxy-3-methylbutanamido)methyl)imidazo[1,2-b]pyridazin-2-yl)(4,4-difluorocyclohexyl)methyl)-1-isopropyl-1H-pyrazole-5-carboxamide], the IC50 in experiment [1] turned out to be 150 nM; in experiment [2] (Homo sapiens, Keratinocyte), 360 nM.
Taken in the same sequence, the figures for `CCn1ncnc1C(=O)N[C@H](c1cn2ncc([C@H](NC(=O)CCC(F)(F)F)C3CC3)cc2n1)C1CCC(F)(F)CC1` [Example 106, N—((S)-(7-((R)-Cyclopropyl(4,4,4-trifluorobutanamido)methyl)imidazo[1,2-b]pyridazin-2-yl)(4,4-difluorocyclohexyl)methyl)-1-ethyl-1H-1,2,4-triazole-5-carboxamide] were 130 nM and 830 nM.
With `CC(C)n1nccc1C(=O)N[C@H](c1cn2ncc(C(NC(=O)CC3CC(F)(F)C3)C(C)(C)O)cc2n1)C1CCC(F)(F)CC1` (single isomer, unassigned) [Example 444, N—((S)-(7-((R*)-1-(2-(3,3-Difluorocyclobutyl)acetamido)-2-hydroxy-2-methylpropyl)imidazo[1,2-b]pyridazin-2-yl)(4,4-difluorocyclohexyl)methyl)-1-isopropyl-1H-pyrazole-5-carboxamide], the figures for the half-maximal inhibitory concentration (IC50) in experiment [1] and in experiment [2] were 2300 nM and 11000 nM, respectively.
As to `O=C(CCC(F)(F)F)N[C@@H](c1cnn2cc([C@@H](NC(=O)c3ccnc(OC(F)F)c3)C3CCC(F)(F)CC3)nc2c1)C1CC1` [Example 186, N—((S)-(7-((R)-Cyclopropyl(4,4,4-trifluorobutanamido)methyl)imidazo[1,2-b]pyridazin-2-yl)(4,4-difluorocyclohexyl)methyl)-2-(difluoromethoxy)isonicotinamide], the IC50 in experiment [1] was found to be 110 nM; in experiment [2] (Homo sapiens, Keratinocyte), 720 nM.
As to `Cc1nonc1C(=O)N[C@H](c1cn2ncc([C@H](NC(=O)C(F)C3CC3)C3CC3)cc2n1)C1CCC(F)(F)CC1` (single isomer, unassigned) [Example 331, N—((S)-(7-((R)-Cyclopropyl((R*)-2-cyclopropyl-2-fluoroacetamido)methyl)imidazo[1,2-b]pyridazin-2-yl)(4,4-difluorocyclohexyl)methyl)-4-methyl-1,2,5-oxadiazole-3-carboxamide], the IC50 amounted to 310 nM in experiment [1] and 1500 nM in experiment [2].
In the case of `O=C(CC1CC(F)(F)C1)N[C@@H](c1cnn2cc([C@@H](NC(=O)c3nonc3COC(F)F)C3CCC(F)(F)CC3)nc2c1)C1CC1` [Example 385, N—((S)-(7-((R)-Cyclopropyl(2-(3,3-difluorocyclobutyl)acetamido)methyl)imidazo[1,2-b]pyridazin-2-yl)(4,4-difluorocyclohexyl)methyl)-4-((difluoromethoxy)methyl)-1,2,5-oxadiazole-3-carboxamide], the IC50 amounted to 35 nM in experiment [1] and 32 nM in experiment [2] (Homo sapiens, Keratinocyte).
The like results for `CC(C)n1nccc1C(=O)N[C@H](c1cn2ncc(C(NC(=O)CCC(F)F)C3CC3)cc2n1)C1CCC(F)(F)CC1` (single isomer, unassigned) [Example 135, N-((1S)-(7-((R*)-Cyclopropyl(4,4-difluorobutanamido)methyl)imidazo[1,2-b]pyridazin-2-yl)(4,4-difluorocyclohexyl)methyl)-1-isopropyl-1H-pyrazole-5-carboxamide] were, in that order, 110 nM and 230 nM.
Taken in the same sequence, the figures for `O=C(CC1CC(F)(F)C1)NC(c1cnn2cc([C@@H](NC(=O)c3cnn(CC(F)(F)F)n3)C3CCC(F)(F)CC3)nc2c1)C1CC1` (stereo in doubt) [Example 28, N—((S)-(7-((R*)-Cyclopropyl(2-(3,3-difluorocyclobutyl)acetamido)methyl)imidazo[1,2-b]pyridazin-2-yl)(4,4-difluorocyclohexyl)methyl)-2-(2,2,2-trifluoroethyl)-2H-1,2,3-triazole-4-carboxamide] were 90 nM and 390 nM.
Regarding `CC(C)n1nccc1C(=O)N[C@@H](COC(C)(C)C)c1cn2ncc(C(NC(=O)CCC(F)(F)F)C3CC3)cc2n1` (single isomer, unassigned) [Example 316, N—((R)-2-(tert-Butoxy)-1-(7-((R*)-cyclopropyl(4,4,4-trifluorobutanamido)methyl)imidazo[1,2-b]pyridazin-2-yl)ethyl)-1-isopropyl-1H-pyrazole-5-carboxamide], the concentration for half-maximal inhibition (IC50) was determined as 240 nM in experiment [1] and 700 nM in experiment [2].
As to `[2H]C([2H])([2H])C([2H])([2H])n1nccc1C(=O)N[C@H](c1cn2ncc(C(NC(=O)CC3CC(F)(F)C3)C3CCC3)cc2n1)C1CCC(F)(F)CC1` (single isomer, unassigned) [Example 495, N—((S)-(7-((R*)-Cyclobutyl(2-(3,3-difluorocyclobutyl)acetamido)methyl)imidazo[1,2-b]pyridazin-2-yl)(4,4-difluorocyclohexyl)methyl)-1-(ethyl-d5)-1H-pyrazole-5-carboxamide], the results for the IC50 in experiment [1] and in experiment [2] were 40 nM and 300 nM, respectively.
